Our source for the IC50 values is patent US11208400B2, “Substituted 6-(1H-pyrazol-1-yl)pyrimidin-4-amine derivatives and uses thereof” (Bayer Aktiengesellschaft, priority 2016, dated 2021).

Each structure is given as a SMILES string. pIC50: −log10 of the molar value.

This assay concerns the target T1, human Npt2a (Homo sapiens, UniProt Q06495).
T1 construct: expressed in transfected cells
T1 sequence (Q06495 1-639): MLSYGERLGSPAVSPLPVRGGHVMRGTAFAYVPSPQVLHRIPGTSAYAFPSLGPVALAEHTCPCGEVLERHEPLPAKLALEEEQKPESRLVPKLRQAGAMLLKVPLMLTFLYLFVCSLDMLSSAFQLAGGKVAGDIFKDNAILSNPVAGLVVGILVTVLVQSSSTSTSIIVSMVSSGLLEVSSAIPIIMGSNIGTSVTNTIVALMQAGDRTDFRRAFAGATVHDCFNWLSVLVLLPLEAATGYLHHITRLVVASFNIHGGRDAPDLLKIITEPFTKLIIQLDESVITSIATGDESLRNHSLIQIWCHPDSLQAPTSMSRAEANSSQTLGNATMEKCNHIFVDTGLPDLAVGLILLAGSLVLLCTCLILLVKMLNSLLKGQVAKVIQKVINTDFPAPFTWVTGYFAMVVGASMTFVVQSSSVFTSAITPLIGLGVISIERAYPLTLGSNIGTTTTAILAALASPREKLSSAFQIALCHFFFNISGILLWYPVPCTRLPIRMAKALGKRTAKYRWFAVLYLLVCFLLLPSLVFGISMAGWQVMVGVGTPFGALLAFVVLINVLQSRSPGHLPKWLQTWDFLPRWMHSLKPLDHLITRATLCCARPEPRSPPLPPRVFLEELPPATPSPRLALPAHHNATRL
The assay can be described thus: Npt2a activity cell based assay, membrane potential dye, CHO T-REx hNpt2a cells. To be noted: doxycycline-induced, depolarization by sodium phosphate influx, average or median values if tested more than once. A digest of the protocol:
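Doxycycline-induced (0.5 μg/mL, 24 h) CHO T-REx cells were loaded with membrane potential dye in sodium-free NHE buffer (pH 7.4) and exposed to compound (50 μM–1 nM, 5 min, room temperature).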
In the case of `Cc1cc(C(C)(C)O)n(-c2cc(Nc3nn(C)c(-c4ccc(F)cc4)c3C)ncn2)n1` [Example 262, 2-[1-(6-{[5-(4-fluorophenyl)-1,4-dimethyl-1H-pyrazol-3-yl]amino}pyrimidin-4-yl)-3-methyl-1H-pyrazol-5-yl]propan-2-ol], the pIC50 (in general, the IC50 on a negative log10 scale, so that one unit is a factor of ten) was 7.48.
For `Cc1cc(C(C)(C)O)n(-c2cc(Nc3c(C)c(-c4ccc(C#N)cc4)nn3CC3CC3)ncn2)n1` [Example 263, 4-[1-(cyclopropylmethyl)-5-({6-[5-(2-hydroxypropan-2-yl)-3-methyl-1H-pyrazol-1-yl]pyrimidin-4-yl}amino)-4-methyl-1H-pyrazol-3-yl]benzonitrile] the value was 6.95; for `CCc1c(-c2ccc(F)cc2)nn(C)c1Nc1cc(-n2nc(C)cc2C(C)(C)O)ncn1` [Example 264, 2-[1-(6-{[4-ethyl-3-(4-fluorophenyl)-1-methyl-1H-pyrazol-5-yl]amino}pyrimidin-4-yl)-3-methyl-1H-pyrazol-5-yl]propan-2-ol], 6.30.
With `CCc1c(-c2ccc(F)cc2)nn(C)c1Nc1cc(-n2nc(C)c(Br)c2C)ncn1` [Example 265, 6-(4-bromo-3,5-dimethyl-1H-pyrazol-1-yl)-N-[4-ethyl-3-(4-fluorophenyl)-1-methyl-1H-pyrazol-5-yl]pyrimidin-4-amine] the figure was 6.74; with `Cc1nn(-c2cc(Nc3[nH]nc(-c4ccc(C#N)cc4)c3C)ncn2)c(C)c1F` [Example 266, 4-(5-{[6-(4-fluoro-3,5-dimethyl-1H-pyrazol-1-yl)pyrimidin-4-yl]amino}-4-methyl-1H-pyrazol-3-yl)benzonitrile], 6.39; with `Cc1nn(-c2cc(Nc3nn(C)c(-c4ccc(F)cc4)c3C)ncn2)c(C)c1F` [Example 267, 6-(4-fluoro-3,5-dimethyl-1H-pyrazol-1-yl)-N-[5-(4-fluorophenyl)-1,4-dimethyl-1H-pyrazol-3-yl]pyrimidin-4-amine], 7.57.
In turn, `Cc1nn(-c2cc(Nc3c(C)c(-c4ccc(C#N)cc4)nn3CC3CC3)ncn2)c(C)c1F` [Example 268, 4-[1-(cyclopropylmethyl)-5-{[6-(4-fluoro-3,5-dimethyl-1H-pyrazol-1-yl)pyrimidin-4-yl]amino}-4-methyl-1H-pyrazol-3-yl]benzonitrile] showed a pIC50 of 8.10.
For `CCc1c(Nc2cc(-n3nc(C)c(Cl)c3C(F)F)ncn2)nn(C)c1-c1ccc(F)cc1` [Example 270, 6-[4-chloro-5-(difluoromethyl)-3-methyl-1H-pyrazol-1-yl]-N-[4-ethyl-5-(4-fluorophenyl)-1-methyl-1H-pyrazol-3-yl]pyrimidin-4-amine] the value was 7.92.
For `CCc1c(Nc2cc(-n3nc(C)c(-c4nnc(C)o4)c3C)ncn2)nn(C)c1-c1ccc(F)cc1` [Example 271, 6-[3,5-dimethyl-4-(5-methyl-1,3,4-oxadiazol-2-yl)-1H-pyrazol-1-yl]-N-[4-ethyl-5-(4-fluorophenyl)-1-methyl-1H-pyrazol-3-yl]pyrimidin-4-amine] the value was 7.41.
For `CCc1c(Nc2cc(-n3nc(C)c(C(=O)N4CCC(C(F)(F)F)C4)c3C)ncn2)nn(C)c1-c1ccc(F)cc1` (stereo not shown) [Example 272, [1-(6-{[4-ethyl-5-(4-fluorophenyl)-1-methyl-1H-pyrazol-3-yl]amino}pyrimidin-4-yl)-3,5-dimethyl-1H-pyrazol-4-yl][3-(trifluoromethyl)pyrrolidin-1-yl]methanone] the value was 6.47.
On to `CCc1c(Nc2cc(-n3nc(C)c4c3CCC4=O)ncn2)nn(C)c1-c1ccc(F)cc1` [Example 273, 1-(6-{[4-ethyl-5-(4-fluorophenyl)-1-methyl-1H-pyrazol-3-yl]amino}pyrimidin-4-yl)-3-methyl-5,6-dihydrocyclopenta[c]pyrazol-4(1H)-one], for which the negative-log IC50 (pIC50) is 6.92.
For `CCc1c(Nc2cc(-n3nc4c(c3C)C(=O)CC4)ncn2)nn(C)c1-c1ccc(F)cc1` [Example 274, 2-(6-{[4-ethyl-5-(4-fluorophenyl)-1-methyl-1H-pyrazol-3-yl]amino}pyrimidin-4-yl)-3-methyl-5,6-dihydrocyclopenta[c]pyrazol-4(2H)-one] the value was 7.36; for `Cc1cc(C)n(-c2cc(Nc3nn(C)c(-c4ccc(F)cc4)c3CN3CC(C(F)(F)F)C3)ncn2)n1` [Example 275, 6-(3,5-dimethyl-1H-pyrazol-1-yl)-N-[5-(4-fluorophenyl)-1-methyl-4-{[3-(trifluoromethyl)azetidin-1-yl]methyl}-1H-pyrazol-3-yl]pyrimidin-4-amine], 5.98.
For `Cc1nn(-c2cc(Nc3nn(C)c(-c4ccc(F)cc4)c3Cl)ncn2)c(C)c1C(C)(C)O` [Example 276, 2-[1-(6-{[4-chloro-5-(4-fluorophenyl)-1-methyl-1H-pyrazol-3-yl]amino}pyrimidin-4-yl)-3,5-dimethyl-1H-pyrazol-4-yl]propan-2-ol] the value was 7.60; for `Cc1nn(-c2cc(Nc3c(Cl)c(-c4ccc(F)cc4)nn3C)ncn2)c(C)c1C(C)(C)O` [Example 277, 2-[1-(6-{[4-chloro-3-(4-fluorophenyl)-1-methyl-1H-pyrazol-5-yl]amino}pyrimidin-4-yl)-3,5-dimethyl-1H-pyrazol-4-yl]propan-2-ol], 6.82; for `Cc1nn(-c2cc(Nc3c(Cl)c(-c4ccc(F)cc4)nn3C)ncn2)c(C(C)(C)O)c1Cl` [Example 278, 2-[4-chloro-1-(6-{[4-chloro-3-(4-fluorophenyl)-1-methyl-1H-pyrazol-5-yl]amino}pyrimidin-4-yl)-3-methyl-1H-pyrazol-5-yl]propan-2-ol], 7.07.
For `CCOC(=O)Cc1c(C)nn(-c2cc(Nc3c(C)c(-c4ccc(F)cc4)nn3CC3CC3)ncn2)c1C` [Example 281, ethyl [1-(6-{[1-(cyclopropylmethyl)-3-(4-fluorophenyl)-4-methyl-1H-pyrazol-5-yl]amino}pyrimidin-4-yl)-3,5-dimethyl-1H-pyrazol-4-yl]acetate] the value was 7.80; for `Cc1nn(-c2cc(Nc3c(C)c(-c4ccc(F)cc4)nn3CC3CC3)ncn2)c(C)c1CO` [Example 282, [1-(6-{[1-(cyclopropylmethyl)-3-(4-fluorophenyl)-4-methyl-1H-pyrazol-5-yl]amino}pyrimidin-4-yl)-3,5-dimethyl-1H-pyrazol-4-yl]methanol], 7.14.
In turn, `CCOC(=O)c1c(C)nn(-c2cc(Nc3c(C)c(-c4ccc(OC(F)(F)F)cc4)nn3CC3CC3)ncn2)c1C` [Example 284, ethyl 1-[6-({1-(cyclopropylmethyl)-4-methyl-3-[4-(trifluoromethoxy)phenyl]-1H-pyrazol-5-yl}amino)pyrimidin-4-yl]-3,5-dimethyl-1H-pyrazole-4-carboxylate] gave a pIC50 of 7.60.
With `CCOC(=O)c1c(C)nn(-c2cc(Nc3c(C)c(-c4ccc(C(F)(F)F)cc4)nn3CC3CC3)ncn2)c1C` [Example 285, ethyl 1-[6-({1-(cyclopropylmethyl)-4-methyl-3-[4-(trifluoromethyl)phenyl]-1H-pyrazol-5-yl}amino)pyrimidin-4-yl]-3,5-dimethyl-1H-pyrazole-4-carboxylate] the figure was 6.85; with `Cc1c(-c2ccc(C#N)cc2)nn(CC2CC2)c1Nc1cc(-n2nc(C(C)C)cc2C)ncn1` [Example 286, 4-[1-(cyclopropylmethyl)-4-methyl-5-({6-[5-methyl-3-(propan-2-yl)-1H-pyrazol-1-yl]pyrimidin-4-yl}amino)-1H-pyrazol-3-yl]benzonitrile], 7.03.
Consider `Cc1nn(-c2cc(Nc3c(C)c(-c4ccc(F)cc4)nn3CC3CC3)ncn2)c(C)c1CC1(O)CC1` [Example 287, 1-{[1-(6-{[1-(cyclopropylmethyl)-3-(4-fluorophenyl)-4-methyl-1H-pyrazol-5-yl]amino}pyrimidin-4-yl)-3,5-dimethyl-1H-pyrazol-4-yl]methyl}cyclopropanol], for which the pIC50 is 8.30.
With `Cc1nn(-c2cc(Nc3c(C)c(-c4ccc(F)cc4)nn3CC3CC3)ncn2)c(C)c1C#N` [Example 288, 1-(6-{[1-(cyclopropylmethyl)-3-(4-fluorophenyl)-4-methyl-1H-pyrazol-5-yl]amino}pyrimidin-4-yl)-3,5-dimethyl-1H-pyrazole-4-carbonitrile] the figure was 7.80.
With `Cc1nn(-c2cc(Nc3c(C)c(-c4ccc(OC(F)(F)F)cc4)nn3CC3CC3)ncn2)c(C)c1C(C)(C)O` [Example 289, 2-{1-[6-({1-(cyclopropylmethyl)-4-methyl-3-[4-(trifluoromethoxy)phenyl]-1H-pyrazol-5-yl}amino)pyrimidin-4-yl]-3,5-dimethyl-1H-pyrazol-4-yl}propan-2-ol] the figure was 7.64; with `Cc1nn(-c2cc(Nc3c(C)c(-c4ccc(OC(F)(F)F)cc4)nn3CC3CC3)ncn2)c(C(C)(C)O)c1Cl` [Example 290, 2-{4-chloro-1-[6-({1-(cyclopropylmethyl)-4-methyl-3-[4-(trifluoromethoxy)phenyl]-1H-pyrazol-5-yl}amino)pyrimidin-4-yl]-3-methyl-1H-pyrazol-5-yl}propan-2-ol], 6.77.
